Test results published in PubChem BioAssay AID328 (DTP/NCI, 2004).
Values joined by “and” are separate entries in the source; they are usually repeats but may differ in a detail not shown here. Equal entries are not always repeated. Inconclusive results and toxic doses are left out. Rule for the calls: active = survival T/C of 150% or more; inactive = T/C below 125% in these data.

Tested on: BDF1 mice, P388 leukemia ip, median survival T/C
Test: NCI In Vivo Anticancer Drug Screen. Data for tumor model P388 Leukemia (intraperitoneal) in B6D2F1 (BDF1) mice
Settings: endpoint: median survival time, higher = longer survival
In short: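 Reported as T/C, where T is the survival measurement in dosed animals and C the same measurement in vehicle controls.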

[1] = dose: 6.25 mg/kg/injection, schedule: Q04DX003 (ip), vehicle: saline with Tween-80
[2] = dose: 12.5 mg/kg/injection, schedule: Q04DX003 (ip), vehicle: saline with Tween-80
[3] = dose: 25.0 mg/kg/injection, schedule: Q04DX003 (ip), vehicle: saline with Tween-80
[4] = dose: 100.0 mg/kg/injection, schedule: Q04DX003 (ip), vehicle: saline with Tween-80
[5] = dose: 200.0 mg/kg/injection, schedule: Q04DX003 (ip), vehicle: saline with Tween-80
[6] = dose: 400.0 mg/kg/injection, schedule: Q04DX003 (ip), vehicle: saline with Tween-80
[7] = dose: 50.0 mg/kg/injection, schedule: Q01DX009 (ip), vehicle: saline with Tween-80
[8] = dose: 100.0 mg/kg/injection, schedule: Q01DX009 (ip), vehicle: saline with Tween-80
[9] = dose: 200.0 mg/kg/injection, schedule: Q01DX009 (ip), vehicle: saline with Tween-80
[10] = dose: 3.13 mg/kg/injection, schedule: Q01DX009 (ip), vehicle: saline with Tween-80
[11] = dose: 6.25 mg/kg/injection, schedule: Q01DX009 (ip), vehicle: saline with Tween-80
[12] = dose: 12.5 mg/kg/injection, schedule: Q01DX009 (ip), vehicle: saline with Tween-80
[13] = dose: 25.0 mg/kg/injection, schedule: Q01DX009 (ip), vehicle: saline
[14] = dose: 50.0 mg/kg/injection, schedule: Q01DX009 (ip), vehicle: saline
[15] = dose: 50.0 mg/kg/injection, schedule: Q04DX003 (ip), vehicle: saline
[16] = dose: 100.0 mg/kg/injection, schedule: Q01DX009 (ip), vehicle: saline
[17] = dose: 100.0 mg/kg/injection, schedule: Q04DX003 (ip), vehicle: saline
[18] = dose: 200.0 mg/kg/injection, schedule: Q04DX003 (ip), vehicle: saline

Measured: T/C

C=CC(CO)N1CC1 (stereo not given)
inactive: [1] 100 % of control | [2] 112 % of control | [3] 104 % of control

CC(=O)Cc1ccc(C(=O)C(C)Cc2ccc(C(C)=O)cc2)cc1 (stereo not given)
inactive: [4] 100 % of control | [5] 90 % of control | [6] 90 % of control

CC1(C)CC(C)(OC(=O)c2ccccc2)N=N1 (stereo not given)
inactive: dose: 25.0 mg/kg/injection, schedule: Q01DX005 (ip), vehicle: other 98 % of control | dose: 50.0 mg/kg/injection, schedule: Q01DX005 (ip), vehicle: other 98 % of control | dose: 100.0 mg/kg/injection, schedule: Q01DX005 (ip), vehicle: other 99 % of control | dose: 200.0 mg/kg/injection, schedule: Q01DX005 (ip), vehicle: other 99 % of control | dose: 400.0 mg/kg/injection, schedule: Q01DX005 (ip), vehicle: other 119 % of control

CC(=O)c1ccc2ccccc2c1OC(=O)c1ccncc1
inactive: dose: 12.5 mg/kg/injection, schedule: Q01DX009 (ip), vehicle: other 99 % of control | dose: 25.0 mg/kg/injection, schedule: Q01DX009 (ip), vehicle: other 98 % of control | dose: 50.0 mg/kg/injection, schedule: Q01DX009 (ip), vehicle: other 107 % of control | dose: 100.0 mg/kg/injection, schedule: Q01DX009 (ip), vehicle: other 118 % of control | dose: 200.0 mg/kg/injection, schedule: Q01DX009 (ip), vehicle: other 107 % of control

C=C(C)C(=O)NCC(=O)Oc1ccc([N+](=O)[O-])cc1
inactive: [7] 86 % of control | [8] 102 % of control | [9] 93 % of control

CCCCCCCCCCCC1=NCCN1
inactive: [10] 96 % of control | [11] 100 % of control | [12] 104 % of control | [2] 96 % of control

O=C1N/C(=N\O)S/C1=C/c1ccc2c(c1)OCO2
inactive: dose: 100.0 mg/kg/injection, schedule: Q01DX001 (ip), vehicle: saline with Tween-80 89 % of control | dose: 200.0 mg/kg/injection, schedule: Q01DX001 (ip), vehicle: saline with Tween-80 95 % of control | dose: 400.0 mg/kg/injection, schedule: Q01DX001 (ip), vehicle: saline with Tween-80 105 % of control

COc1ccc(CCNC(=S)NCCc2ccc(OC)c(OC)c2)cc1OC
inactive: dose: 50.0 mg/kg/injection, schedule: Q01DX001 (ip), vehicle: Klucel (hydroxypropylcellulose) (HPC) 100 % of control | dose: 100.0 mg/kg/injection, schedule: Q01DX001 (ip), vehicle: Klucel (hydroxypropylcellulose) (HPC) 100 % of control | dose: 200.0 mg/kg/injection, schedule: Q01DX001 (ip), vehicle: Klucel (hydroxypropylcellulose) (HPC) 90 % of control

Cc1cc(O)c2c(c1O)C(=O)C13C(=C2O)C(=O)C2C(O)C1C1C(O)C3C(=O)C3=C(O)c4c(O)cc(C)c(O)c4C(=O)C321 (stereo not given)
inactive: dose: 2.6 mg/kg/injection, schedule: Q04DX003 (ip), vehicle: saline with Tween-80 113 % of control | dose: 4.0 mg/kg/injection, schedule: Q04DX003 (ip), vehicle: saline with Tween-80 118 % of control

CC(=O)c1ccc(F)c(C)c1
inactive: dose: 100.0 mg/kg/injection, schedule: Q01DX001 (ip), vehicle: saline sonified 105 % of control | dose: 200.0 mg/kg/injection, schedule: Q01DX001 (ip), vehicle: saline sonified 110 % of control | dose: 400.0 mg/kg/injection, schedule: Q01DX001 (ip), vehicle: saline sonified 105 % of control

CC(C)C(=O)c1ccco1
inactive: [1] 95 % of control | [2] 100 % of control | [3] 90 % of control

COc1ccc(/C=C/C(=O)c2ccc(Cl)cc2)c(OC)c1
inactive: dose: 25.0 mg/kg/injection, schedule: Q01DX009 (ip), vehicle: saline with Tween-80 95 % of control | [7] 100 % of control | [8] 109 % of control | [4] 109 % of control | [9] 100 % of control | [5] 95 % of control | [6] 90 % of control

CCCCCCCCCCCCCCCc1ccc(C(=O)C[n+]2ccccc2)cc1
inactive: [10] 100 % of control | [11] 104 % of control | [12] 118 % of control | dose: 16.5 mg/kg/injection, schedule: Q04DX003 (ip), vehicle: saline with Tween-80 122 % of control

O=C1c2ccccc2C(=O)N1c1c2ccccc2cc2ccccc12
inactive: [4] 100 % of control | [5] 104 % of control | [6] 100 % of control

COc1ccc(/C=C/C(=O)c2ccc(OC)c(OC)c2)cc1O
inactive: [13] 108 % of control | [14] 101 % of control | [15] 107 % of control | [16] 106 % of control | [17] 110 % of control | dose: 200.0 mg/kg/injection, schedule: Q01DX009 (ip), vehicle: saline 90 % of control | [18] 107 % of control | dose: 400.0 mg/kg/injection, schedule: Q01DX009 (ip), vehicle: saline 99 % of control | dose: 400.0 mg/kg/injection, schedule: Q04DX003 (ip), vehicle: saline 124 % of control

COc1ccc2cc3[n+](cc2c1OC)CCc1cc2c(cc1-3)OCO2
inactive: dose: 1.0 mg/kg/injection, schedule: Q01DX010 (ip), vehicle: steriod suspending solution 104 % of control | dose: 2.0 mg/kg/injection, schedule: Q01DX010 (ip), vehicle: steriod suspending solution 122 % of control | dose: 6.0 mg/kg/injection, schedule: Q01DX010 (ip), vehicle: saline 104 % of control

c1ccc(-c2nn(-c3ccccc3)[n+](-c3cccc4ccccc34)n2)cc1
inactive: dose: 2.0 mg/kg/injection, schedule: Q01DX009 (ip), vehicle: saline with Tween-80 103 % of control | dose: 4.0 mg/kg/injection, schedule: Q01DX009 (ip), vehicle: saline with Tween-80 112 % of control

COc1ncnc2nc[nH]c12
inactive: [8] 95 % of control | [4] 100 % of control | [9] 91 % of control | [5] 109 % of control | dose: 400.0 mg/kg/injection, schedule: Q01DX009 (ip), vehicle: saline with Tween-80 86 % of control | [6] 95 % of control

CCOC(=O)CC/C(=C/c1ccccc1)[N+](=O)[O-]
inactive: [3] 110 % of control | dose: 50.0 mg/kg/injection, schedule: Q04DX003 (ip), vehicle: saline with Tween-80 106 % of control | [4] 119 % of control

CCNC(C)(C)C(Cl)c1cccs1 (stereo not given)
inactive: dose: 0.78 mg/kg/injection, schedule: Q01DX009 (ip), vehicle: saline 101 % of control | dose: 1.56 mg/kg/injection, schedule: Q01DX009 (ip), vehicle: saline 110 % of control | dose: 3.12 mg/kg/injection, schedule: Q01DX009 (ip), vehicle: saline 90 % of control | dose: 6.25 mg/kg/injection, schedule: Q01DX009 (ip), vehicle: saline 92 % of control and 106 % of control | [13] 87 % of control | [14] 87 % of control and 112 % of control | [15] 100 % of control | [16] 114 % of control | [17] 118 % of control | [18] 86 % of control

CCOC(=O)C1CNc2ccccc2N1 (stereo not given)
inactive: dose: 7.18 mg/kg/injection, schedule: Q04DX003 (ip), vehicle: Klucel (hydroxypropylcellulose) (HPC) 110 % of control | dose: 14.37 mg/kg/injection, schedule: Q04DX003 (ip), vehicle: Klucel (hydroxypropylcellulose) (HPC) 105 % of control | dose: 28.75 mg/kg/injection, schedule: Q01DX001 (ip), vehicle: Klucel (hydroxypropylcellulose) (HPC) 91 % of control | dose: 28.75 mg/kg/injection, schedule: Q04DX003 (ip), vehicle: Klucel (hydroxypropylcellulose) (HPC) 105 % of control | dose: 57.5 mg/kg/injection, schedule: Q01DX001 (ip), vehicle: Klucel (hydroxypropylcellulose) (HPC) 95 % of control | dose: 57.5 mg/kg/injection, schedule: Q04DX003 (ip), vehicle: Klucel (hydroxypropylcellulose) (HPC) 109 % of control | dose: 75.0 mg/kg/injection, schedule: Q01DX009 (ip), vehicle: Klucel (hydroxypropylcellulose) (HPC) 105 % of control | dose: 115.0 mg/kg/injection, schedule: Q01DX001 (ip), vehicle: Klucel (hydroxypropylcellulose) (HPC) 91 % of control | dose: 115.0 mg/kg/injection, schedule: Q01DX009 (ip), vehicle: Klucel (hydroxypropylcellulose) (HPC) 110 % of control | dose: 115.0 mg/kg/injection, schedule: Q04DX003 (ip), vehicle: Klucel (hydroxypropylcellulose) (HPC) 95 % of control | dose: 170.0 mg/kg/injection, schedule: Q01DX001 (ip), vehicle: Klucel (hydroxypropylcellulose) (HPC) 104 % of control
